Data taken from PMC11114221, “A pattern recognition artificial olfactory system based on human olfactory receptors and organic synaptic devices” (Science Advances, 2024).

Legend:
Experiment in all cases: tryptophan fluorescence quenching
Assay type in all cases: binding
Settings in all cases: receptor nanodiscs 500 nM; 20 mM Hepes, 100 mM NaCl, pH 8.0
hOR51E2 = molecular target: T1, hOR51E2 (Homo sapiens, UniProt Q9H255)
T1 construct: gene OR51E2; E. coli SuptoxR (Rosetta 2 (DE3) with RraA); ~38 kDa
T1 sequence (Q9H255 1-320): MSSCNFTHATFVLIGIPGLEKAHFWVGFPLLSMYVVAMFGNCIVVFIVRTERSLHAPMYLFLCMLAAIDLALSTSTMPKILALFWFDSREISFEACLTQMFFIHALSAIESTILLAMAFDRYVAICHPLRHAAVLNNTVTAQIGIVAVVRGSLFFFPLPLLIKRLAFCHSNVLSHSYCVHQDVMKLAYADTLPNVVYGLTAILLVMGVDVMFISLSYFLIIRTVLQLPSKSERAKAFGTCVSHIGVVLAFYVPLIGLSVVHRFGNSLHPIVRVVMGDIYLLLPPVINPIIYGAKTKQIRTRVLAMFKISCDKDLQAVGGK

hOR52D1 = molecular target: T2, hOR52D1 (Homo sapiens, UniProt Q9H346)
T2 construct: gene OR52D1; E. coli SuptoxR (Rosetta 2 (DE3) with RraA); ~38 kDa
T2 sequence (Q9H346 1-318): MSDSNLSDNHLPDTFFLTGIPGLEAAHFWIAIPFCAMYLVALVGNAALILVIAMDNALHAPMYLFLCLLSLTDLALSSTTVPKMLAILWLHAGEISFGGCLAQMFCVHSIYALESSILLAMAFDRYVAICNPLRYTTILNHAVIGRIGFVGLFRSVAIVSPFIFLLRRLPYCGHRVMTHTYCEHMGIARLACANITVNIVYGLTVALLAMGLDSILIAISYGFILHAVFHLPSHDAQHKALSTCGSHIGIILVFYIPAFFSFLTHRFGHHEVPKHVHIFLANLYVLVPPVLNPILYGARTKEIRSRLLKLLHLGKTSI

hOR51E1 = molecular target: T3, hOR51E1 (Homo sapiens, UniProt Q8TCB6)
T3 construct: gene OR51E1; E. coli SuptoxR (Rosetta 2 (DE3) with RraA); ~38 kDa
T3 sequence (Q8TCB6 1-318): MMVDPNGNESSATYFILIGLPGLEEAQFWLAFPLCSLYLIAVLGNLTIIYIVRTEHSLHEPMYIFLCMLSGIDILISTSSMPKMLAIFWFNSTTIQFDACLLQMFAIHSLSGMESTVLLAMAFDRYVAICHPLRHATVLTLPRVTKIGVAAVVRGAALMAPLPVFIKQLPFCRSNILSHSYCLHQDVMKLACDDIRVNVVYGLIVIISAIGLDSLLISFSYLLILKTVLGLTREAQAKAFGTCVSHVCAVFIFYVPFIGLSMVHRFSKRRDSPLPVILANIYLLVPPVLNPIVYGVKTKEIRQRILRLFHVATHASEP

Row | SMILES | ∆F/F0 (%) (hOR51E2) | ∆F/F0 (%) (hOR52D1) | ∆F/F0 (%) (hOR51E1)
1 | CCCC(=O)O [BA, butyric acid] | each hOR ND displayed distinct binding affinities toward the SCFAs | each hOR ND displayed distinct binding affinities toward the SCFAs | each hOR ND displayed distinct binding affinities toward the SCFAs
2 | CCCCCC(=O)O [HA, hexanoic acid] | each hOR ND displayed distinct binding affinities toward the SCFAs | each hOR ND displayed distinct binding affinities toward the SCFAs | each hOR ND displayed distinct binding affinities toward the SCFAs
3 | CCC(=O)O [PA, propionic acid] | each hOR ND displayed distinct binding affinities toward the SCFAs | each hOR ND displayed distinct binding affinities toward the SCFAs | each hOR ND displayed distinct binding affinities toward the SCFAs
4 | CCCCC(=O)O [VA, valeric acid] | each hOR ND displayed distinct binding affinities toward the SCFAs | each hOR ND displayed distinct binding affinities toward the SCFAs | each hOR ND displayed distinct binding affinities toward the SCFAs
